Assay results as given in US20250339445A1, “Modulators of Orphan Nuclear Receptors for Treating Pancreatitis, Glioblastoma, Sarcopenia and Stroke” (Emory University, priority 2020, published 2025).

Experiments:
RORα = molecular target: T1, RORα (Homo sapiens, UniProt P35398); experiment: RORα activity by luciferase reporter (miR-122 promoter) in Huh-7 cells; assay type: cell-based; design: MIR122 promoter activity compared with SR1078: dose or concentration left out as unconfirmed; settings: wild type and mutant RORA
T1 construct: endogenous in cells; host or cells: Huh-7 (Huh7) human hepatocellular carcinoma cells
T1 sequence (P35398 1-523): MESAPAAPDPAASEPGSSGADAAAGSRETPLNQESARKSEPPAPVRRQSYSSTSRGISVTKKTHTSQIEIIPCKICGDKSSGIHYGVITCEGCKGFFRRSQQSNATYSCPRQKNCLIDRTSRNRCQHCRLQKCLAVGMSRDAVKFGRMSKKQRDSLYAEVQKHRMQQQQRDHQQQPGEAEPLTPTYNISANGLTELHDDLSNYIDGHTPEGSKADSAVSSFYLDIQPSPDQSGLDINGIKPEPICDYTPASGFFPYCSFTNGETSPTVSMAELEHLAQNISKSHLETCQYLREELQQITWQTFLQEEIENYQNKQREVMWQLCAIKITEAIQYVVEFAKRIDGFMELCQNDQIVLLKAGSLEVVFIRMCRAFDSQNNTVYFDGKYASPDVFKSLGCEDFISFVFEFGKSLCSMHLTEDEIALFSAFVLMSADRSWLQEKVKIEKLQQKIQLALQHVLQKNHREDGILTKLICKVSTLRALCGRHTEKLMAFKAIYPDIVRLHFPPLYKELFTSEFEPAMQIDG
Procedure: Huh-7 cells were transfected with a luciferase reporter plasmid containing the miR-122 promoter (extends to −900 from the transcription start site) with intact wild-type (WT) RORα response element (RORE) or mutated RORE (mut). The cells were treated with Compound 1 one day (24 hours) post-transfection at the indicated concentrations. Luciferase expression was measured after 24 hours of treatment and normalized to Renilla Luciferase activity expressed from a co-transfected pRL plasmid. The pRL Vector, which provides constitutive expression of Renilla luciferase, was used in combination with a firefly luciferase vector to co-transfect cells. Expression of Renilla luciferase provides an internal control value to which expression of the experimental firefly luciferase reporter gene may be normalized.
Luciferase assay. For Luciferase assays, cells grown in 24 well plates were co-transfected with a luciferase reporter plasmid (50 ng) and 1 ng of Renilla Luciferase vector (PRL, Promega) using the TransIT-LT 1 (Mirus) transfection reagent (MIR 2300, Madison, WI). Firefly and Renilla luciferase activity was assessed using the Dual Luciferase Reporter Assay system (Promega). Readings were taken in triplicates on a Mithras LB 940 Luminometer (Berthold Technologies). […]
(§1) Following transfections, the cells were lysed with passive lysis buffer (Cat #E1941; Promega), shaking for 20 min at RT and transferred into appropriate 96-well plate. Firefly and Renilla luciferase activity was assessed using the Dual Luciferase Reporter Assay system (Cat #E1910; Promega) on a luminometer Mithras 2000 (Centro XZ, LB960, Berthold Technologies, Bad Wildbad, Germany). […] Readings were taken in triplicate.
as §1, with “room temperature (RT)” for “RT”, “into the” for “into”, “triplicates. […]” for “triplicate.”
After transfections, the cells were lysed with passive lysis buffer (catalog no. E1941, Promega), shaken for 20 minutes at room temperature, and transferred into the appropriate 96-well plate. Firefly and Renilla luciferase activity was assessed using the Dual Luciferase Reporter Assay system (catalog no. E1910, Promega) on a luminometer Mithras 2000 (Centro XZ, LB960; Berthold Technologies, Bad Wildbad, Germany). […] Readings were taken in triplicate.

[1] = system: peripheral and the central benzodiazepine receptors; settings: prediction later experimentally proven; cited from earlier work
FGF21 = FGF21 mRNA expression in 266-6 murine acinar cells (RT-qPCR); assay type: cell-based; settings: 266-6 cells
Procedure: Using one of these models, RT-qPCR analysis of FFG21 mRNA expression was performed in 266-6 murine acinar cells after 6 hours treatment of DMSO/different doses of SR1078 (commercial ROR-α agonist). The statistical significance was calculated relative to DMSO and was determined by Student's t test (two-tailed). Values in graphs are mean±SD. *p<0.05, **p<0.01, ***p<0.001, ****p<0.0001.

[2] = system: high-fat-fed C57BL/6 mice; experiment: High-fat-diet-fed C57BL/6 mice treated with Compound 1 and/or antagomiR-122; assay type: in vivo; settings: 50% HFD; Compound 1 7.5 mg/kg i.p. twice a week, antagomiR once a week, 3 weeks
Procedure: C57BL/6 mice were fed a 50% high fat diet (HFD) for four weeks. The control cohort received three hydrodynamic tail vein injections of a 5 μg antagomiR-control and six i.p injections of saline over three weeks. A second cohort was hydrodynamic tail vein injected with 5 μg antagomiR-122 (the reverse complement that inhibits activity of miR-122) three times and i.p injections of saline six times over three weeks. A third cohort was injected i.p. with Compound 1 (7.5 mg/kg) twice a week plus antagomiR-control once a week over the course of 3 weeks. The final cohort was injected i.p. with Compound 1 (7.5 mg/kg) twice a week plus antagomiR-122 injections once a week over the course of 3 weeks.
Male C57BL/6J mice, 7 to 8 weeks old, were housed randomly in standard cages and were fed a HFD, or atherogenic diet (consisting 1% Chol and 0.5% cholic acid, see also Table 6). All mice had free access to water during the experimental period. During the feeding period body weight was monitored every 3 days. In the HFD experiment, after 4 or 6 weeks, the resultant obese mice were treated with antagomiR-122 (5 μg/mouse once a week for 3 weeks), or i.p. injected with Compound 1 (RORα agonist, 7.5 mg/kg twice a week for 3 weeks; or 15 mg/kg 3 times a week for 3 weeks). The obese control (HFD) group was administered only saline with DMSO and antagomiR-control. After 3 weeks of treatment mice were sacrificed and livers were taken for RNA-seq analysis. Livers, white adipose, and skeletal muscle tissues were frozen in liquid nitrogen or in optimum cutting temperature embedded frozen blocks, for further RNA and histologic analysis. In the atherogenic diet experiment mice were treated with 15 mg/kg Compound 1 after 3 weeks with the diet. After 3.5 weeks of treatment, mice were sacrificed, and the livers were frozen in liquid nitrogen or in optimum cutting temperature embedded frozen blocks. Plasma was collected from atherogenic diet-fed mice and saved in −20° C. for ALT and AST analysis using the Reflotron® Analyzer and test-strips (Roche).
In the HFD experiment, after 4 or 6 weeks, the resultant obese mice were treated with antagoMIR122 (5 μg/mouse once a week for 3 weeks), or i.p. injected with Compound 1 (RORα agonist, 7.5 mg/kg twice a week for 3 weeks; or 15 mg/kg 3 times a week for 3 weeks). The obese control (HFD) group was administered only saline with DMSO and antagomiR-control.
Mice were fed with a 50% HFD and after 4 weeks, when fatty liver was already established, they were treated with Compound 1, antagoMIR122 or both compounds together for an additional 3 weeks. […] The weighing of mice began at week 3, one week before treatments were initiated. […] The liver weight of the mice was in accordance with their body weight.

MIR122 = experiment: AntagoMIR122 treatment of chow or HFD fed mice; assay type: in vivo, C57BL/6 mice; settings: for MIR122 levels in plasma, liver and white adipose tissue: hydrodynamic tail vein injection, 5 μg/mouse once a week
Procedure: C57BL/6 mice, 7 to 8 weeks old, were fed chow or 50% HFD, consisting of 50% Fat, 20% Sucrose, 10% Fructose, 1.25% Chol) (Envigo, TD.150235) for 4 weeks. In experiments of miR-122 repression by antagomiR, mice were hydrodynamic tail vain injected with antagomiR-122 or antagomiR-control (5 μg/mouse in 1.5 mL saline) once a week for 4 weeks and were still fed HFD or chow diet. After 4 weeks of injections mice were sacrificed and the livers, white adipose, and skeletal muscle tissues were frozen in liquid nitrogen or in optimum cutting temperature embedded frozen blocks, for further RNA and histologic analysis. AntagomiRs were obtained from Sigma-Aldrich (St Louis, MO); see Table 5.
C57BL/6 mice, 7 to 8 weeks old, were fed chow or 50% HFD, consisting of 50% Fat, 20% Sucrose, 10% Fructose, 1.25% Cholesterol) (Envigo, TD.150235) for 4 weeks. In experiments of MIR122 repression by antagomiR, mice were hydrodynamic tail vain injected with antagoMIR122 or antagomiR-control (5 μg/mouse in 1.5 mL saline) once a week for 3 weeks and were still fed HFD or chow diet. After 3 weeks of injections mice were sacrificed and the livers, gonadal white adipose, and skeletal muscle tissues were frozen in liquid nitrogen or in optimum cutting temperature embedded frozen blocks, for further RNA and histologic analysis. AntagomiRs were obtained from Sigma-Aldrich (St Louis, MO).

## O=C1Nc2cc(C(=O)N3CCC(Cc4ccccc4)CC3)ccc2Nc2ccccc21 [Compound 68]
RORα
  MIR122 promoter activity compared with SR1078: more potent than the commercial synthetic RORA agonist SR1078

## CC(C)=CCC/C(C)=C/CC/C(C)=C/CN1C(=O)c2cccc(O)c2Nc2c(O)cc(O)cc21 [Diazepinomicin]
[1]
  Predicted CNS activity (Gourdeau et al. 2008): predicted to be CNS inactive

## O=C(Nc1ccc(C(O)(C(F)(F)F)C(F)(F)F)cc1)c1ccc(C(F)(F)F)cc1 [SR1078]
FGF21; 6 hours treatment
  Fgf21 expression in acinar cells: increases Fgf21 expression
FGF21; 6 hours, effect decreasing at 20 and 40 μM
  Concentration of optimal effect on Fgf21 expression: 10 micromolar (μM)

## antagomiR-122: MIR122 antagonist; 2′-O Me-modified, phosphorothioate, cholesterol-linked reverse complement that inhibits activity of miR-122 (antisense ACAAACACCAUUGUCACACUCCA; all 2'-O-methyl, backbone not given here; phosphorothioate linkages and cholesterol conjugate, further chemistry not fully specified)
[2]
  Body weight: highest increase in weight
MIR122; HFD mice
  Mice weight: increased significantly
MIR122; HFD-fed mice
  Liver fat droplets, total TG liver content and muscle TG levels: increase
MIR122
  MIR122 levels in plasma, liver and white adipose tissue: significantly reduced
MIR122; listed as antagoMIR122
  MIR122 levels in plasma, liver and white adipose tissue: reduced significantly
